This is an account of results in patent publication EP2518054A1, “AMIDE COMPOUND” (Takeda Pharmaceutical Company Limited, priority 2009, dated 2011).

The target in this experiment is T1, human GPR52 (Homo sapiens, UniProt Q9Y2T5).
T1 construct: expressed in transfected cells; host or cells: CHO(dhfr-) cells
The experiment can be described thus: Increase of intracellular cAMP concentration in human GPR52-expressing CHO cell (AlphaScreen cAMP assay). Conditions: human GPR52-expressing CHO(dhfr-) cells; for activity at 1 µM: CHO, read-out: GPR52 agonist activity (%); for EC50: concentration of the test compound at which it shows 50% activity, read-out: GPR52 agonist activity EC50. In kind it is cell-based. The protocol: Increase of intracellular cAMP concentration in human GPR52-expressing CHO cell
Using OptiPlate-384 (PerkinElmer Inc.), 1×10^4 human GPR52-expressing CHO(dhfr-) cells were incubated together with various concentration(10^-5µM - 10µm) of a test compound in an assay buffer (30 µL, HBSS (containing Ca^2+ and Mg^2+), 0.5% BSA, 100 µM IBMX, 100 µM Ro20-1724, 5 mM HEPES (pH 7.55)) at 37°C for 30 min. Thereafter, according to the protocol of AlphaScreen CAMP Assay Kit (PerkinElmer Inc.), the intracellular cAMP concentration was measured by EnVision (PerkinElmer Inc.). The GPR52 agonist activity was calculated, assuming the intracellular cAMP concentration in the presence of […] N-(2-hydroxyethyl)-3-[2-[3-(trifluoromethyl)benzyl]-1-benzofuran-4-yl]benzamide (Reference Example 79) to be 100% and assuming the intracellular cAMP concentration when DMSO was added instead of the test compound to be 0%.
A general note: Bead proximity is the source of the signal in Alpha formats.

Where [1] appears, read: 1µM test compound, 100% = cAMP with 1 µM Reference Example 79, 0% = DMSO, 37°C, 30 min.

One may read the EC50 as the concentration needed to bring the measured effect to its halfway point.

Each structure is given as a SMILES string.

T1 sequence (Q9Y2T5 whole entry): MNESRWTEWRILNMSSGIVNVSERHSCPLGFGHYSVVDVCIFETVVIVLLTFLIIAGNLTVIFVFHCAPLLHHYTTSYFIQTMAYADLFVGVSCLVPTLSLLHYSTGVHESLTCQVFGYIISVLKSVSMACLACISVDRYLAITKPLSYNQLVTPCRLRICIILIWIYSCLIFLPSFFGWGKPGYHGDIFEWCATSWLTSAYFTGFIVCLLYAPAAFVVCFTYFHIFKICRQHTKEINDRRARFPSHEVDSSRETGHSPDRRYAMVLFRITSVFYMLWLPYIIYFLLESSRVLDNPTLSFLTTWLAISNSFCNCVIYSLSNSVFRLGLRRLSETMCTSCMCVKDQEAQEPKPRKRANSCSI

Regarding `Cc1nn(-c2cccc3nn(Cc4cc(F)cc(Cl)c4)cc23)c(C)c1C(N)=O` [Example 81, 1-[2-(3-chloro-5-fluorobenzyl)-2H-indazol-4-yl]-3,5-dimethyl-1H-pyrazole-4-carboxamide], the activity at 1 µM under setting [1] worked out at 102%.
Same read-out and setting: then `Cc1nn(-c2cccc3nn(Cc4cc(F)cc(Cl)c4)cc23)c(C)c1C(=O)NCCO` [Example 82, 1-[2-(3-chloro-5-fluorobenzyl)-2H-indazol-4-yl]-N-(2-hydroxyethyl)-3,5-dimethyl-1H-pyrazole-4-carboxamide], with 105%.
The same measure, in the same setting: to `Cc1nn(-c2cccc3nn(Cc4cc(F)cc(C(F)(F)F)c4)cc23)c(C)c1C(N)=O` [Example 83, 1-[2-[3-fluoro-5-(trifluoromethyl)benzyl]-2H-indazol-4-yl]-3,5-dimethyl-1H-pyrazole-4-carboxamide] belongs 104%; to `Cc1nn(-c2cccc3nn(Cc4cc(F)cc(C(F)(F)F)c4)cc23)c(C)c1C(=O)NCCO` [Example 84, 1-[2-[3-fluoro-5-(trifluoromethyl)benzyl]-2H-indazol-4-yl]-N-(2-hydroxyethyl)-3,5-dimethyl-1H-pyrazole-4-carboxamide], 105%.
Take `Cc1nc(-c2cccc3nn(Cc4cc(F)cc(C(F)(F)F)c4)cc23)sc1C(N)=O` [Example 86, 2-[2-[3-fluoro-5-(trifluoromethyl)benzyl]-2H-indazol-4-yl]-4-methyl-1,3-thiazole-5-carboxamide]: under setting [1], the “GPR52 agonist activity (%)” value was 102% and the activity at 1 µM came to 85%.
For the molecule `O=C(NCCO)c1sc(-c2cccc3cc(Cc4cccc(C(F)(F)F)c4)sc23)nc1C(F)(F)F` [Example 87, N-(2-hydroxyethyl)-4-(trifluoromethyl)-2-[2-[3-(trifluoromethyl)benzyl]-1-benzothiophen-7-yl]-1,3-thiazole-5-carboxamide], under setting [1], the activity at 1 µM was 92%.
Same read-out and setting: to `O=C(NCCO)c1sc(-c2cccc3nn(Cc4cccc(C(F)(F)F)c4)cc23)nc1C(F)(F)F` [Example 88, N-(2-hydroxyethyl)-4-(trifluoromethyl)-2-[2-[3-(trifluoromethyl)benzyl]-2H-indazol-4-yl]-1,3-thiazole-5-carboxamide] belongs 83%.
Still for that read-out and setting: to `Cc1nn(-c2ccc(F)c3cc(Cc4cc(F)cc(Cl)c4)sc23)c(CO)c1C(=O)NCC(N)=O` [Example 89, N-(2-amino-2-oxoethyl)-1-[2-(3-chloro-5-fluorobenzyl)-4-fluoro-1-benzothiophen-7-yl]-5-(hydroxymethyl)-3-methyl-1H-pyrazole-4-carboxamide] belongs 99%.
Consider `Cc1nn(-c2ccc(F)c3cc(Cc4cc(F)cc(Cl)c4)sc23)c(CO)c1C(=O)NCCO` [Example 90, 1-[2-(3-chloro-5-fluorobenzyl)-4-fluoro-1-benzothiophen-7-yl]-N-(2-hydroxyethyl)-5-(hydroxymethyl)-3-methyl-1H-pyrazole-4-carboxamide], for which the EC50 turned out to be 14 nM. Further, the activity at 1 µM under setting [1] amounted to 104%.
Regarding `Cc1nn(-c2ccc(F)c3cc(Cc4cc(F)cc(Cl)c4)sc23)c(CO)c1C(N)=O` [Example 91, 1-[2-(3-chloro-5-fluorobenzyl)-4-fluoro-1-benzothiophen-7-yl]-5-(hydroxymethyl)-3-methyl-1H-pyrazole-4-carboxamide], the activity at 1 µM under setting [1] came out at 99%.
Same read-out and setting: then `Cc1cccc(Cc2cc3cccc(-n4nc(C)c(C(=O)NCC(N)=O)c4C)c3s2)c1` [Example 93, N-(2-amino-2-oxoethyl)-3,5-dimethyl-1-[2-(3-methylbenzyl)-1-benzothiophen-7-yl]-1H-pyrazole-4-carboxamide], with 70%.
For the molecule `Cc1cccc(Cc2cc3cccc(-n4nc(C)c(C(=O)NCCO)c4C)c3s2)c1` [Example 94, N-(2-hydroxyethyl)-3,5-dimethyl-1-[2-(3-methylbenzyl)-1-benzothiophen-7-yl]-1H-pyrazole-4-carboxamide], the activity at 1 µM under setting [1] came to 96%.
The same measure, in the same setting: to `Cc1cccc(Cc2cc3cccc(-n4nc(C)c(C(N)=O)c4C)c3s2)c1` [Example 95, 3,5-dimethyl-1-[2-(3-methylbenzyl)-1-benzothiophen-7-yl]-1H-pyrazole-4-carboxamide] belongs 95%.
Same read-out and setting: then `COc1cc(Cc2cc3cccc(-n4nc(C)c(C(=O)NCC(N)=O)c4C)c3s2)ccc1F` [Example 96, N-(2-amino-2-oxoethyl)-1-[2-(4-fluoro-3-methoxybenzyl)-1-benzothiophen-7-yl]-3,5-dimethyl-1H-pyrazole-4-carboxamide], with 84%.
On to `COc1cc(Cc2cc3cccc(-n4nc(C)c(C(=O)NCCO)c4C)c3s2)ccc1F` [Example 97, 1-[2-(4-fluoro-3-methoxybenzyl)-1-benzothiophen-7-yl]-N-(2-hydroxyethyl)-3,5-dimethyl-1H-pyrazole-4-carboxamide], for which the activity at 1 µM under setting [1] was found to be 94%.
Still for that read-out and setting: then `COc1cc(Cc2cc3cccc(-n4nc(C)c(C(N)=O)c4C)c3s2)ccc1F` [Example 98, 1-[2-(4-fluoro-3-methoxybenzyl)-1-benzothiophen-7-yl]-3,5-dimethyl-1H-pyrazole-4-carboxamide], with 98%.
For `Cc1nn(-c2cccc3cc(Cc4cc(F)cc(F)c4)sc23)c(C)c1C(=O)NCCO` [Example 99, 1-[2-(3,5-difluorobenzyl)-1-benzothiophen-7-yl]-N-(2-hydroxyethyl)-3,5-dimethyl-1H-pyrazole-4-carboxamide], the half-maximal effective concentration (EC50) is 13 nM. In addition, under setting [1], the activity at 1 µM was found to be 99%.
As to `Cc1nn(-c2cccc3cc(Cc4cc(F)cc(F)c4)sc23)c(C)c1C(N)=O` [Example 100, 1-[2-(3,5-difluorobenzyl)-1-benzothiophen-7-yl]-3,5-dimethyl-1H-pyrazole-4-carboxamide], the activity at 1 µM under setting [1] was found to be 104%.
As for `Cc1nn(-c2cccc3cc(Cc4cc(F)cc(F)c4)sc23)c(C)c1C(=O)NCC(N)=O` [Example 101, N-(2-amino-2-oxoethyl)-1-[2-(3,5-difluorobenzyl)-1-benzothiophen-7-yl]-3,5-dimethyl-1H-pyrazole-4-carboxamide], under setting [1], the activity at 1 µM came to 96%.
As for `CNC(=O)c1c(C)nn(-c2ccc(F)c3cc(Cc4cccc(C(F)(F)F)c4)sc23)c1C` [Example 102, 1-[4-fluoro-2-[3-(trifluoromethyl)benzyl]-1-benzothiophen-7-yl]-N,3,5-trimethyl-1H-pyrazole-4-carboxamide], under setting [1], the activity at 1 µM worked out at 99%.
The same measure, in the same setting: to `Cc1nn(-c2ccc(F)c3cc(Cc4cccc(C(F)(F)F)c4)sc23)c(C)c1C(=O)NC1CC1` [Example 103, N-cyclopropyl-1-[4-fluoro-2-[3-(trifluoromethyl)benzyl]-1-benzothiophen-7-yl]-3,5-dimethyl-1 H-pyrazole-4-carboxamide] belongs 97%; to `Cc1nn(-c2cccc3sc(Cc4cccc(C(F)(F)F)c4)cc23)c(C)c1C(N)=O` [Example 104, 3,5-dimethyl-1-[2-[3-(trifluoromethyl)benzyl]-1-benzothiophen-4-yl]-1H-pyrazole-4-carboxamide], 93%.
As for `Cc1nn(-c2cccc3sc(Cc4cccc(C(F)(F)F)c4)cc23)c(C)c1C(=O)NCC(N)=O` [Example 105, N-(2-amino-2-oxoethyl)-3,5-dimethyl-1-[2-[3-(trifluoromethyl)benzyl]-1-benzothiophen-4-yl]-1H-pyrazole-4-carboxamide], the activity at 1 µM under setting [1] worked out at 94%.
